According to ChEMBL document CHEMBL1201862, “PubChem BioAssay data set” (2004):
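These data come from cells grown in 96-well plates and exposed to compound for 48 hours at five concentrations. The concentration for 50% growth inhibition is given as GI50.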 Calls of active or inactive are those of the source. Cut-off read from the data, not from the text of the source: active = GI50 up to about 1.1 µM and inactive = higher.

Legend:
Assay in all cases: inhibition of tumour cell growth, NCI panel, 48 h
HT-29 = system: HT-29
Malme-3M = system: Malme-3M
ACHN = system: ACHN
M14 = system: M14
MOLT-4 = system: MOLT-4
SK-MEL-28 = system: SK-MEL-28
IGROV-1 = system: IGROV-1
OVCAR-5 = system: OVCAR-5
TK-10 = system: TK-10
HCT-116 = system: HCT-116
NCI-H522 = system: NCI-H522
SF-539 = system: SF-539
SK-OV-3 = system: SK-OV-3
HOP-62 = system: HOP-62
EKVX = system: EKVX
NCI-H460 = system: NCI-H460
NCI/ADR-RES = system: NCI/ADR-RES
K562 = system: K562
UO-31 = system: UO-31
RXF 393 = system: RXF 393

SMILES: Cc1ccc(OCC2OC(n3cnc4nc(N)nc(Cl)c43)CC2Oc2ccc(C)cc2)cc1 (stereo not drawn)
- GI50 (HT-29): 23.7 µM (inactive)
- GI50 (Malme-3M): 24.3 µM (inactive)
- GI50 (ACHN): 15.2 µM (inactive)
- GI50 (M14): 15.8 µM (inactive)
- GI50 (MOLT-4): 4.51 µM (inactive)
- GI50 (SK-MEL-28): 36 µM (inactive)
- GI50 (IGROV-1): 18.5 µM (inactive)
- GI50 (OVCAR-5): 18.3 µM (inactive)
- GI50 (TK-10): 31.1 µM (inactive)
- GI50 (HCT-116): 22 µM (inactive)
- GI50 (NCI-H522): 15.7 µM (inactive)
- GI50 (SF-539): 23.3 µM (inactive)
- GI50 (SK-OV-3): 33.9 µM (inactive)
- GI50 (HOP-62): 22.3 µM (inactive)
- GI50 (EKVX): 24.5 µM (inactive)
- GI50 (NCI-H460): 21.4 µM (inactive)
- GI50 (NCI/ADR-RES): 15.9 µM (inactive)

SMILES: C=CCn1c(-c2ccc(Cl)cc2)cs/c1=N\c1ccccc1OC
- GI50 (Malme-3M): 31.1 µM (inactive)
- GI50 (K562): 3.44 µM (inactive)
- GI50 (ACHN): > 100 µM (inactive)
- GI50 (M14): 10.1 µM (inactive)
- GI50 (MOLT-4): 0.179 µM (active)
- GI50 (UO-31): > 100 µM (inactive)
- GI50 (SK-MEL-28): > 47.2 µM (inactive)
- GI50 (IGROV-1): > 100 µM (inactive)
- GI50 (OVCAR-5): > 59.3 µM (inactive)
- GI50 (TK-10): > 100 µM (inactive)
- GI50 (HCT-116): 9.31 µM (inactive)
- GI50 (RXF 393): > 100 µM (inactive)
- GI50 (SF-539): > 76.7 µM (inactive)
- GI50 (SK-OV-3): > 45.2 µM (inactive)
- GI50 (HOP-62): 48.9 µM (inactive)
- GI50 (NCI-H460): 36 µM (inactive)
- GI50 (NCI/ADR-RES): 6.5 µM (inactive)

SMILES: CC1(C)C[C@H]2C3=CC[C@@H]4[C@@]5(C)CC[C@H](O)C(C)(C)[C@@H]5CC[C@@]4(C)[C@]3(C)C[C@@H](O)[C@@]23C[C@@H]1OC3=O
- GI50 (HT-29): 50.2 µM (inactive)
- GI50 (Malme-3M): > 100 µM (inactive)
- GI50 (K562): 97.1 µM (inactive)
- GI50 (ACHN): > 100 µM (inactive)
- GI50 (M14): > 100 µM (inactive)
- GI50 (MOLT-4): 49.2 µM (inactive)
- GI50 (UO-31): > 100 µM (inactive)
- GI50 (SK-MEL-28): > 100 µM (inactive)
- GI50 (IGROV-1): > 100 µM (inactive)
- GI50 (OVCAR-5): > 100 µM (inactive)
- GI50 (TK-10): > 100 µM (inactive)
- GI50 (HCT-116): 74 µM (inactive)
- GI50 (NCI-H522): 56.5 µM (inactive)
- GI50 (SF-539): > 100 µM (inactive)
- GI50 (SK-OV-3): > 100 µM (inactive)
- GI50 (HOP-62): > 100 µM (inactive)
- GI50 (EKVX): > 100 µM (inactive)
- GI50 (NCI-H460): 70.3 µM (inactive)
- GI50 (NCI/ADR-RES): 72.4 µM (inactive)

SMILES: O=P1(c2ccccc2)C2=CCC=CC2C(c2ccccc2)N1Cc1ccccc1 (stereo not drawn)
- GI50 (HT-29): 11.6 µM (inactive)
- GI50 (Malme-3M): 17.8 µM (inactive)
- GI50 (K562): 16.1 µM (inactive)
- GI50 (ACHN): 16.7 µM (inactive)
- GI50 (M14): 17.1 µM (inactive)
- GI50 (MOLT-4): 16.1 µM (inactive)
- GI50 (UO-31): 12.4 µM (inactive)
- GI50 (IGROV-1): 16.1 µM (inactive)
- GI50 (OVCAR-5): > 100 µM (inactive)
- GI50 (TK-10): 20 µM (inactive)
- GI50 (HCT-116): 15.2 µM (inactive)
- GI50 (NCI-H522): 11.4 µM (inactive)
- GI50 (SF-539): 17.4 µM (inactive)
- GI50 (SK-OV-3): 17.1 µM (inactive)
- GI50 (HOP-62): 19.6 µM (inactive)
- GI50 (EKVX): 14 µM (inactive)
- GI50 (NCI-H460): 13 µM (inactive)
- GI50 (NCI/ADR-RES): 14.5 µM (inactive)

SMILES: CC1(C)CC(=O)c2c(nc3c(ccc4ccccc43)c2-c2ccc(NC(=O)CCCCCCCCC(=O)Nc3ccc(-c4c5c(nc6c4ccc4ccccc46)CC(C)(C)CC5=O)cc3)cc2)C1
- GI50 (HT-29): > 100 µM (inactive)
- GI50 (K562): > 100 µM (inactive)
- GI50 (ACHN): > 100 µM (inactive)
- GI50 (M14): > 100 µM (inactive)
- GI50 (MOLT-4): > 100 µM (inactive)
- GI50 (UO-31): > 100 µM (inactive)
- GI50 (SK-MEL-28): > 100 µM (inactive)
- GI50 (IGROV-1): 0.017 µM (active)
- GI50 (OVCAR-5): > 100 µM (inactive)
- GI50 (TK-10): > 100 µM (inactive)
- GI50 (HCT-116): > 100 µM (inactive)
- GI50 (NCI-H522): > 100 µM (inactive)
- GI50 (SF-539): > 100 µM (inactive)
- GI50 (SK-OV-3): > 100 µM (inactive)
- GI50 (HOP-62): > 100 µM (inactive)
- GI50 (EKVX): > 100 µM (inactive)
- GI50 (NCI-H460): > 100 µM (inactive)
- GI50 (NCI/ADR-RES): > 100 µM (inactive)

SMILES: O=C1CSC(c2ccc(Cl)cc2)N1c1ccc(Oc2ccc(Cl)cc2)c(Cl)c1 (stereo not drawn)
- GI50 (HT-29): 18.6 µM (inactive)
- GI50 (Malme-3M): 7.66 µM (inactive)
- GI50 (K562): 17.3 µM (inactive)
- GI50 (ACHN): 17.4 µM (inactive)
- GI50 (M14): 16.7 µM (inactive)
- GI50 (MOLT-4): 14.2 µM (inactive)
- GI50 (UO-31): 8.26 µM (inactive)
- GI50 (SK-MEL-28): 17.7 µM (inactive)
- GI50 (IGROV-1): 14.8 µM (inactive)
- GI50 (OVCAR-5): 14.2 µM (inactive)
- GI50 (TK-10): 18.7 µM (inactive)
- GI50 (HCT-116): 15.7 µM (inactive)
- GI50 (NCI-H522): 7.13 µM (inactive)
- GI50 (SF-539): 14.6 µM (inactive)
- GI50 (SK-OV-3): 17.6 µM (inactive)
- GI50 (HOP-62): 21.3 µM (inactive)
- GI50 (EKVX): 13.7 µM (inactive)
- GI50 (NCI-H460): 18.5 µM (inactive)
- GI50 (NCI/ADR-RES): 17.4 µM (inactive)
